The record followed here is patent US4795639A, “Potentiating formulations” (priority 1971, dated 1989).

This assay addresses T1, dihydropteroate synthetase (Escherichia coli, UniProt P0AC13).
T1 construct: incubating an extract of E. coli with pAB-7-C^14; endogenous in cells; host or cells: E. coli extract (synthetase separated from HMPPS on Sephadex G-100, as concluded from part (a))
Put plainly: `synthetase` assay: formation of dihydropteroate-C^14. The format is biochemical, E. coli. The protocol:
(b) The activity of the test compound against `synthetase` was determined as follows, by monitoring the formulation of dihydropteroate-C^14.
A pool of Pt was prepared from ATP neutralised (50 μl, 0.1M), MgCl2.6H2 O (50 μl, 0.1M), dithiothreitol (100 μl, 0.1M), tris buffer (100 μl, 0.4M, pH 8.3), HMPt (25 μl, 876 μM) and 170 μl of a solution containing HMPPS. The mixture was incubated for 60 minutes at 37° C., chilled briefly on ice and then dextrose (100 μl containing 72.1 mg/ml) and hexokinase (20 μl containing 2000 units/ml) were added at room temperature to the solution, which was allowed to stand at this temperature for 15 minutes.
A solution of MgCl2.6H2 O (10 μl, 0.1M), pAB-C^14 (10 μl, 0.4 mM), dithiothreitol (20 μl, 0.1M) and tris buffer (20 μl, 0.4M, pH8.3) was made in each of five test tubes and then 80 μl of the contents of the pool added to each, together with synthetase and/or test compound as indicated in TABLE 2. The solution was then made up to 200 μl with distilled water.
All seven tubes were then incubated for 30 minutes at 37° C., chilled on ice and then these, together with control tubes 10 to 12 from part (a), were chromatographically analysed as follows:
100 μl of the contents of each of the tubes was spotted onto Whatman No. 3 MM chromatography paper (2×20 cm) at the `origin`, the run descending in a Sorenson buffer of potassium and sodium phosphates (0.1M, pH 7.0) for 10 to 15 cm.

T1 sequence (P0AC13 whole entry): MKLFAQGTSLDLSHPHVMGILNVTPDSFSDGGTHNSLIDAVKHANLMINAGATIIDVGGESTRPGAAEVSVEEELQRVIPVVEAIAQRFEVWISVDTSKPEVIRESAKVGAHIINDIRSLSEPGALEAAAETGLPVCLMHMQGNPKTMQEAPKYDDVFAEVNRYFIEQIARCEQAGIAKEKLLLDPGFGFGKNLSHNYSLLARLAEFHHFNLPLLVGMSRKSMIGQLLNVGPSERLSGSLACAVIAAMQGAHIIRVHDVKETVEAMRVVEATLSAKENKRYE

For `CC1(C)Nc2nc(N)nc(O)c2N=C1CO` [DMHP, 2-amino-4-hydroxy-6-hydroxymethyl-7,7-dimethyl-7,8-dihydropteridine], under “final concentration 1 × 10^-5 M”, the inhibition (commonly the share of the control response that was lost under treatment) at 10 µM was determined as 0%. The compound also returned an inhibition at 2.5 µM (final concentration 2.5 × 10^-6 M) of 5%. Testing at 87 µM (final concentration 8.7 × 10^-5 M) gave an inhibition of 9%.
